US10252997B2, “Monocyclic compound” (Takeda Pharmaceutical Company Limited, priority 2015, dated 2019)

Legend:
Human ACC1 = biological target: T1, Human ACC1 (Homo sapiens, UniProt Q13085); experiment: Measurement of ACC1 inhibitory activity (Malonyl-CoA produced, RapidFire-mass spectrometry); format: biochemical; conditions: 10 μM of the test compound; read-out: ACC1 inhibitory rate (%) at 10 μM
T1 construct: His6 (from vector pFAST-BacHTc; purified on Ni-NTA) (N); made in house; host or cells: SF-9 insect cells, recombinant baculovirus BAC-ACC1
Description: (1) Cloning of Human ACC1 Gene and Preparation of Recombinant Baculovirus
Human ACC1 gene was cloned by PCR using a human liver cDNA library (Clontech) as a template and Primer 1 and Primer 2 shown below. Primer 1 and Primer 2 were prepared by adding SalI, NotI restriction enzyme recognition sequences based on the information of the base sequence of human ACC1 gene (Genbank Accession U19822).
PCR was performed using Pyrobest DNA polymerase (TAKARA BIO INC.). The obtained PCR product was cloned to pT7 Blue vector (Novagen) and after confirmation of the base sequence, digested with restriction enzymes SalI and […]. The obtained DNA fragment was inserted into pFAST-BacHTc (Invitrogen) digested with restriction enzymes SalI and […] to give expression plasmid ACC1/pFAST-BacHTc.
Using the expression plasmid ACC1/pFAST-BacHTc and BAC-TO-BAC Baculovirus Expression System (Invitrogen), virus stock BAC-ACC1 of recombinant Baculovirus was prepared.
(2) Preparation of ACC1 Protein
SF-9 cells (Invitrogen) were inoculated to a medium (10 L) for insect cells (Sf-900IISFM medium (Invitrogen) containing 5% fetal bovine serum (Trace), 50 mg/L Gentamicin (Wako Pure Chemical Industries, Ltd.) and 0.1% Pluronic F-68 (Invitrogen)) at 1.0×10^6 cells/mL, and cultured with shaking in Wave Bioreactor (GE Healthcare) at 27° C., 20 rpm, rocking angle 100, oxygen concentration 30%.
On day 2 of the culture, recombinant Baculovirus BAC-ACC1 was added, and the cells were cultured for 3 days. The culture medium was centrifuged at 4000×g for 10 min to give virus-infected cells. The cells were washed with phosphate buffered saline (Invitrogen) and centrifuged under the same conditions. The obtained cells were cryopreserved at −80° C.
The cryopreserved cells were thawed in ice, and suspended in 800 mL of 25 mM HEPES buffer (pH 7.5) containing 10% Glycerol, 0.3 M NaCl, 1 mM EDTA, 25 mM Sodium β-Glycerophosphate and 1 mM Sodium Orthovanadate, and supplemented with Complete Protease Inhibitor (Roche). The obtained suspension was homogenized two times in a polytron homogenizer (Kinematica) at 20,000 rpm for 20 sec. The obtained cell disruption solution was clarified by centrifugation at 186,000×g for 60 min, and the supernatant was passed through Ni-NTA Superflow Cartridges (5 mL) (QUIAGEN). Furthermore, it was washed with 25 mM HEPES buffer (pH 7.5) containing 20 mM Imidazole and 0.3 M NaCl, and eluted with 25 mM HEPES buffer (pH 7.5) containing 250 mM Imidazol and 0.3 M NaCl. The eluate was concentrated by Amicon Ultra-15 (Nihon Millipore K.K.) having a fraction molecular weight of 50K. The obtained concentrate was subjected to gel filtration with 50 mM HEPES buffer (pH 7.5) containing 10 mM MgCl2, 2 mM dithiothreitol, 10 mM tripotassium citrate and 0.3 M NaCl by using HiLoad 26/60 Superdex200 prep grade gel filtration column (GE Healthcare) to give ACC1. The obtained ACC1 was cryopreserved at −80° C.
(3) Measurement of ACC1 Inhibitory Activity
ACC1 obtained in the above-mentioned (2) was diluted with an enzyme reaction buffer (50 mM HEPES (pH 7.5), 10 mM MgCl2, 10 mM Tripottasium Citrate, 2 mM Dithiothreitol, 0.001% Fatty acid free BSA) to a concentration of 0.2 μg/ml, and the mixture was added to each well of a 384 well assay plate by 10 μl. A test compound dissolved in dimethyl sulfoxide (DMSO) was diluted with an enzyme reaction buffer, and the resulting solution (5 μl) was added to each well. The mixture was incubated at room temperature for 60 min. Then, a substrate solution (50 mM KHCO3, 200 μM ATP, 200 μM Acetyl-CoA, 5 μl) was added to each well, and the mixture was reacted at room temperature for 30 min. The reaction was quenched by adding a reaction quenching liquid (1.3% formic acid, 0.2 μM Malonyl-^13C3-CoA) by 60 μL each to the obtained reaction mixtures (test compound addition group).
In addition, a reaction was performed in the same manner as above and without adding the test compound (test compound non-addition group). […]

HCT116 cells = experiment: Growth inhibitory activity on HCT116 cell (CellTiter-Glo); format: cell-based; conditions: Homo sapiens, HCT-116, 72 h; test compound 1 μM, 3 days; read-out: HCT116 cell proliferation inhibitory rate (%) at 1 μM
Description: The growth inhibitory activity of the compound on HCT116 cell was evaluated by the following method.
HCT116 cells were seeded in a 384 well blackplate at 900 cells/[…]/well, and maintained in an assay medium (RPMI medium (Wako) containing 2% fetal bovine serum, 50 Unit/mL penicillin and […] streptomycin (Invitrogen)). The next day, a test compound dissolved in dimethyl sulfoxide (DMSO) was diluted with the assay medium, and the obtained compound solution was added by […] to each well of a plate containing HCT116 cells, and incubated at 37° C., 5% CO2 (test compound addition group).
A similar reaction was performed without adding a test compound (test compound non-addition group).
Furthermore, a similar reaction was performed under the conditions without adding HCT116 cell and a test compound (control group).
After 3 days, […] of a CellTiter-Glo reagent (Promega KK) was added to the well, and the mixture was stirred for 10 min. Thereafter, the luminescence value of each well was measured by the EnVision™ multilabel counter (Perkin Elmer Inc.).
The HCT116 cell proliferation inhibitory rate (%) of the test compound was determined by the following calculation formula. (1−(luminescence of test compound addition group−luminescence of control group)÷(luminescence of test compound non-addition group−luminescence of control group))×100
The HCT116 cell proliferation inhibitory rates (%) of the test compound (1 μM) are shown below.

Row | inhibition at 10 µM (Human ACC1) [%] | Structure (SMILES) | inhibition at 1 µM (HCT116 cells) [%]
1 | 95 | C[C@@H](COc1cnc(-c2ccc(Oc3cccc(OCC4CC4)c3)cn2)o1)NC(N)=O [Example 104, 1-((2S)-1-((2-(5-(3-(cyclopropylmethoxy)phenoxy)pyridin-2-yl)-1,3-oxazol-5-yl)oxy)propan-2-yl)urea] | 
2 | 96 | CC(=O)NC(C)c1ccc(OCc2c(F)cc(Oc3cccc(OCC4CC4)c3)cc2F)nc1 (stereo not drawn) [Example 68, N-(1-(6-((4-(3-(cyclopropylmethoxy)phenoxy)-2,6-difluorobenzyl)oxy)pyridin-3-yl)ethyl)acetamide] | 25
3 | 98 | CC(=O)NC(C)CC(=O)c1cnn(-c2ccc(Oc3cccc(OCC4CC4)c3)nc2)c1 (stereo not drawn) [Example 103, N-(4-(1-(6-(3-(cyclopropylmethoxy)phenoxy)pyridin-3-yl)-1H-pyrazol-4-yl)-4-oxobutan-2-yl)acetamide] | 
4 | 96 | CC(=O)NC(C)c1ccc(OCc2c(F)cc(Oc3cccc(OCC4CC4)c3)cc2F)cn1 (stereo not drawn) [Example 69, N-(1-(5-((4-(3-(cyclopropylmethoxy)phenoxy)-2,6-difluorobenzyl)oxy)pyridin-2-yl)ethyl)acetamide] | 28
5 | 97 | CC(=O)NC(C)c1ccc(OCc2c(F)cc(Oc3cccc(OCC4CC4)c3)cc2F)nn1 (stereo not drawn) [Example 78, N-(1-(6-((4-(3-(cyclopropylmethoxy)phenoxy)-2,6-difluorobenzyl)oxy)pyridazin-3-yl)ethyl)acetamide] | 12
6 | 98 | CC(=O)NC(C)c1cnc(OCc2c(F)cc(Oc3cccc(OCC4CC4)c3)cc2F)c(F)c1 (stereo not drawn) [Example 73, N-(1-(6-((4-(3-(cyclopropylmethoxy)phenoxy)-2,6-difluorobenzyl)oxy)-5-fluoropyridin-3-yl)ethyl)acetamide] | 31
7 | 98 | C[C@@H](COc1cnc(-c2ccc(Oc3cccc(OCC4CC4)c3)nc2)o1)NC(N)=O [Example 101, 1-((2S)-1-((2-(6-(3-(cyclopropylmethoxy)phenoxy)pyridin-3-yl)-1,3-oxazol-5-yl)oxy)propan-2-yl)urea] | 
8 | 100 | CC(=O)N[C@@H](C)COc1cnc(-c2ccc(Oc3cccc(OCC4CC4)c3)cn2)o1 [Example 102, N-((2S)-1-((2-(5-(3-(cyclopropylmethoxy)phenoxy)pyridin-2-yl)-1,3-oxazol-5-yl)oxy)propan-2-yl)acetamide] | 
9 | 98 | CC(=O)N[C@@H](C)COc1cnc(-c2cnc(Oc3cccc(OCC4CC4)c3)cc2C)o1 [Example 106, N-((2S)-1-((2-(6-(3-(cyclopropylmethoxy)phenoxy)-4-methylpyridin-3-yl)-1,3-oxazol-5-yl)oxy)propan-2-yl)acetamide] | 
10 | 100 | CC(=O)N[C@@H](C)COc1cnc(-c2ccc(Oc3cccc(OCC4CC4)c3)nc2)o1 [Example 99, N-((2S)-1-((2-(6-(3-(cyclopropylmethoxy)phenoxy)pyridin-3-yl)-1,3-oxazol-5-yl)oxy)propan-2-yl)acetamide] | 
11 | 97 | CC(=O)NC(C)CCc1coc(-c2ccc(Oc3cccc(OCC4CC4)c3)cc2)n1 (stereo not drawn) [Example 83, N-(4-(2-(4-(3-(cyclopropylmethoxy)phenoxy)phenyl)-1,3-oxazol-4-yl)butan-2-yl)acetamide] | 28
12 | 100 | CC(=O)NC(C)CC(=O)c1cnc(-c2ccc(Oc3cccc(OCC4CC4)c3)nc2)o1 (stereo not drawn) [Example 105, N-(4-(2-(6-(3-(cyclopropylmethoxy)phenoxy)pyridin-3-yl)-1,3-oxazol-5-yl)-4-oxobutan-2-yl)acetamide] | 

More lines, now with the values behind:

Row | Structure (SMILES) | inhibition at 10 µM (Human ACC1) [%] | inhibition at 1 µM (HCT116 cells) [%]
13 | CC(=O)NC(C)c1ccc(OCc2c(F)cc(Oc3cccc(OCC4CC4)c3)cc2F)cc1 (stereo not drawn) [Example 39, N-(1-(4-((4-(3-(cyclopropylmethoxy)phenoxy)-2,6-difluorobenzyl)oxy)phenyl)ethyl)acetamide] | 82 | 26
14 | CC(=O)NC(C)c1ccc(OCc2ccc(Oc3cccc(OCC4CC4)c3)cc2F)cc1 (stereo not drawn) [Example 19, N-(1-(4-((4-(3-(cyclopropylmethoxy)phenoxy)-2-fluorobenzyl)oxy)phenyl)ethyl)acetamide] | 83 | 15
15 | CC(=O)NC(C)CCc1cc(-c2ccc(Oc3cccc(OCC4CC4)c3)cc2)no1 (stereo not drawn) [Example 46, N-(4-(3-(4-(3-(cyclopropylmethoxy)phenoxy)phenyl)-1,2-oxazol-5-yl)butan-2-yl)acetamide] | 95 | 20
16 | CC(=O)NC(C)c1cnc(OCc2c(F)cc(Oc3cccc(OCC4CC4)c3)cc2F)cn1 (stereo not drawn) [Example 43, N-(1-(5-((4-(3-(cyclopropylmethoxy)phenoxy)-2,6-difluorobenzyl)oxy)pyrazin-2-yl)ethyl)acetamide] | 94 | 
17 | CC(=O)NC(C)c1ccc(OCc2ccc(Oc3cccc(OCC4CC4)c3)cc2F)nc1 (stereo not drawn) [Example 42, N-(1-(6-((4-(3-(cyclopropylmethoxy)phenoxy)-2-fluorobenzyl)oxy)pyridin-3-yl)ethyl)acetamide] | 85 | 10
18 | CC(=O)NC(C)CCc1cnc(-c2ccc(Oc3cccc(OCC4CC4)c3)cc2)o1 (stereo not drawn) [Example 32, N-(4-(2-(4-(3-(cyclopropylmethoxy)phenoxy)phenyl)-1,3-oxazol-5-yl)butan-2-yl)acetamide] | 97 | 30
19 | CC(=O)NC(C)CCc1ccn(-c2ccc(Oc3cccc(OCC4CC4)c3)cc2)n1 (stereo not drawn) [Example 48, N-(4-(1-(4-(3-(cyclopropylmethoxy)phenoxy)phenyl)-1H-pyrazol-3-yl)butan-2-yl)acetamide] | 96 | 14
20 | CC(=O)N[C@@H](C)COc1cc(-c2ccc(Oc3cccc(OCC4CC4)c3)cc2)no1 [Example 67, N-((2S)-1-((3-(4-(3-(cyclopropylmethoxy)phenoxy)phenyl)-1,2-oxazol-5-yl)oxy)propan-2-yl)acetamide] | 92 | 29
21 | CC(=O)NC(C)c1cnc(OCc2ccc(Oc3cccc(OCC4CC4)c3)cc2F)cn1 (stereo not drawn) [Example 35, N-(1-(5-((4-(3-(cyclopropylmethoxy)phenoxy)-2-fluorobenzyl)oxy)pyrazin-2-yl)ethyl)acetamide] | 78 | 
